Measured values from PMC10511495, “Dermato-cosmeceutical properties of Pseudobombax ellipticum (Kunth) Dugand: Chemical profiling, in vitro and in silico studies” (Saudi Pharmaceutical Journal : SPJ, 2023).

How the values were obtained:
[1] = biological target: T1, Porcine pancreatic elastase (Sus scrofa, UniProt P00772); assay: chromogenic peptide hydrolysis, absorbance at […] nm; format: biochemical; details: 0.8 mM N-succinyl-Ala-Ala-Ala-p-nitroanilide; 15 min preincubation
T1 construct: gene CELA1; native pancreatic enzyme preparation; docking used another elastase (Zn metalloprotease, MMP12)
T1 sequence (P00772 27-266): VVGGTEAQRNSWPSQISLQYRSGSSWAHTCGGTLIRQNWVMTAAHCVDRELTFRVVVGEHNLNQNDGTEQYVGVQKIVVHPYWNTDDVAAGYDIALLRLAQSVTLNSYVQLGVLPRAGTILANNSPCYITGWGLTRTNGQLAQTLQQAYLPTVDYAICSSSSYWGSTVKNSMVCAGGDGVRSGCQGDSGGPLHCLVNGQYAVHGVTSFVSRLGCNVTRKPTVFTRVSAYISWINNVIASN

[2] = biological target: T2, Collagenase from Clostridium histolyticum (ChC); assay: FALGPA hydrolysis, absorbance at […] nm; format: biochemical, Hathewaya histolytica; details: 2 mM FALGPA solution; 50 mM Tricine, 400 mM NaCl, 10 mM CaCl2, pH 7.5; 15 min preincubation
T2 construct: gene colG; docking used another collagenase (MMP)

With `O=c1cc(CO)occ1O` [Kojic acid] as the molecule, how does the “Parameter / Elastase” value [1] read?
The value was 21.60 ± 0.9 µg/mL.

`O=c1c(O)c(-c2ccc(O)c(O)c2)oc2cc(O)cc(O)c12` [Quercetin] was tested. Which “Parameter / Collagenase” value [2] did it give?
Its value is 24.83 ± 1.8 µg/mL.
